Test results reported in US7803554B2, “Detection of binding factors with fluorescence polarization” (priority 2000, dated 2010).

Assays:
[1] = system: mouse monoclonal antibody 8E11; assay: CE/LIF binding stoichiometry of TMR-BPDE oligonucleotides with antibody; settings: 24 nM oligonucleotide
Method: The separation was carried out at room temperature with a separation voltage of 15 kV. The running buffer were either 1× tris-glycine (25 mM Tris, 192 mM glycine, pH 8.3) or 0.5× tris-glycine (12.5 mM tris and 96 mM glycine, pH 8.3). The capillary was washed approximately every 3 injections with 0.02 M NaOH electrophoretically at 15 kV for 7 min followed by electrophoresis using water and the running buffer for 7 min each. All capillary electrophoresis data were analyzed using Igor Pro software (version 3.1, WaveMetrics Inc., Lake Oswego, Oreg.).
Complex formation of TMR-labeled BPDE-DNA adducts and antibody: TMR-BPDE-16-mer and TMR-BPDE-90-mer samples were diluted to appropriate concentrations in running buffer (tris-glycine, pH 8.3). The double stranded BPDE-90-mer was denatured by heating at 95° C. for 5 min in a heating block. It was then placed on ice to prevent reannealing. After cooling, the samples were briefly centrifuged in a microcentrifuge (Z233M, Hermle) to collect condensation from the side of the tube, then gently mixed to ensure a homogenous solution. TMR-BPDE-16-mer was synthesized as a single-stranded oligonucleotide. […] After addition of antibody to the BPDE-oligonucleotide solutions, the samples were gently vortexed to ensure complete mixing and incubated at the room temperature for 5-10 min, then analyzed by CE/LIF. […]

[2] = molecular target: SSB (Escherichia coli, UniProt P0AGE0); settings: fluorescence quenching methods; Molineux 1975, Krauss 1981; cited from earlier work
[3] = system: mouse monoclonal antibody 8E11; assay: CE/LIF competitive binding of unlabeled BPDE-16-mer and TMR-BPDE-16-mer to antibody; settings: 9.6 nM 16mer*, 33 nM antibody
Method: Simultaneous binding of two BPDE-DNA adducts to the antibody: Both TMR-labeled and unlabeled BPDE-adducts were allowed to bind with the antibody. The freshly diluted BPDE-16-mer (16mer) and TMR-BPDE-16-mer (16mer*) solutions were mixed together before addition of the antibody. Concentrations of the TMR-BPDE-16-mer and the antibody were kept constant at 9.6 nM and 33.3 nM, respectively, and the unlabeled BPDE-16-mer was varied from 2.5 nM to […]. The sample mixtures were incubated for 5 min at room temperature, then analyzed by CE/LIF. Similarly, the antibody was added to mixtures of the TMR-BPDE-16mer and BPDE-90mer to study the competitive binding and ligand exchange.
The relative changes of the primary and secondary complexes with varying concentrations of unlabeled 16mer when it is incubated with 9.6 nM TMR-labeled 16mer* and 33 nM (5 μg/mL) antibody were measured. When the concentration of the unlabeled 16mer is below 10 nM, the primary complex [Ab(16mer*)] dominates and its amount remains almost constant with increasing concentration of the unlabeled 16 mer up to 10 nM. The total ligand concentration (16mer* and 16mer) is lower compared with that of the antibody, and there are excess antibody binding sites available. Thus, no significant competition between the two ligands takes place. […]

SSB, sequence (P0AGE0 2-178 limits assumed): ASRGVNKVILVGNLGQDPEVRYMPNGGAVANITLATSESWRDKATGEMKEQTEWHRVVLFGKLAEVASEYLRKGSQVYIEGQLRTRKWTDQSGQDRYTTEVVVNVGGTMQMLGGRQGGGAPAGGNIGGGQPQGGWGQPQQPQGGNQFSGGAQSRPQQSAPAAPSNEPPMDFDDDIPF

## 16mer*: 5′-TMR-labeled 16-mer 5′-CCCATTATGCATAACC-3′ with a single BPDE adduct (single BPDE adduct, position not given here)
[1]; antibody 1 μg/mL (maximum)
  share of total oligonucleotide present as secondary complex (1:2): 50%
[1]; antibody 8-16 μg/mL (50-100 nM)
  share of total oligonucleotide present as primary complex (1:1) with the antibody: 80-85%

## d(pT)8
[2]
  affinity of SSB: about 2×10^6 M^−1

## d(pT)16
[2]
  affinity of SSB: 1.4e+06 M⁻¹

## unlabeled 16mer: unlabeled 16-mer 5′-CCCATTATGCATAACC-3′ with a BPDE adduct (chemistry not fully specified)
[3]
  competitor concentration at which secondary complexes reach a maximum: 100 nM
  competitor concentration resulting in disappearance of the primary Ab(16mer*) complex: above 250 nM
